Patent US20250206727A1, “HETEROCYCLIC SUBSTITUTED AROMATIC COMPOUND, PREPARATION METHOD THEREFOR, HERBICIDAL COMPOSITION AND APPLICATION” (QINGDAO KINGAGROOT CHEMICAL COMPOUND CO., LTD., priority 2022, published 2025)

Experiments:
Experiment in all cases: Post-emergence test on weeds (greenhouse, spray at 2-3 leaf stage)
Format in all cases: in vivo
Set-up in all cases: key: Level 10: completely dead; Level 9: growth control rate greater than or equal to 90% and less than 100%; Level 8: growth control rate greater than or equal to 80% and less than 90%; Level 7: growth control rate greater than or equal to 70% and less than 80%; Level 6: growth control rate greater than or equal to 60% and less than 70%; Level 5: growth control rate greater than or equal to 50% and less than 60%; Level 4: growth control rate greater than or equal to 40% and less than 50%; Level 3: growth control rate greater than or equal to 30% and less than 40%; Level 2: growth control rate greater than or equal to 20% and less than 30%; Level 1: growth control rate less than 20%; Level 0: no effect
Details in all cases: 60 g a.i./ha, 3 weeks after application
[1] = tested on: Digitaria sanguinalis
Source text: (§1) The activity level criteria for plant damage (i.e., growth control rate) are as follows: • Level 10: completely dead; • Level 9: growth control rate greater than or equal to 90% and less than 100%; • Level 8: growth control rate greater than or equal to 80% and less than 90%; • Level 7: growth control rate greater than or equal to 70% and less than 80%; • Level 6: growth control rate greater than or equal to 60% and less than 70%; • Level 5: growth control rate greater than or equal to 50% and less than 60%; • Level 4: growth control rate greater than or equal to 40% and less than 50%; • Level 3: growth control rate greater than or equal to 30% and less than 40%; • Level 2: growth control rate greater than or equal to 20% and less than 30%; • Level 1: growth control rate less than 20%; • Level 0: no effect.
(§2) The above growth control rates are fresh weight control rates.
(§3) Monocotyledonous and dicotyledonous weed seeds (Descurainia sophia, Capsella bursa-pastoris, Abutilon theophrasti, Galium spurium, Stellaria media, Lithospermum arvense, Rorippa indica, Alopecurus aequalis, Alopecurus japonicus, Eleusine indica, Beckmannia syzigachne, Sclerochloa dura, Erigeron canadensis, Phleum paniculatum, Veronica polita, Bromus japonicus, Aegilops tauschii, Phalaris arundinacea, Amaranthus retrofexus, Chenopodium, Commelina communis, Cichorium endivia, Convolvulus arvensis, Cirsium arvense, Solanum nigrum, Acalypha australis, Digitaria sanguinalis, Echinochloa crus-galli, Setaria viridis, Setaa pumila, Lepochloa chinensis, Monochona vaginalis, Sagitta trifolia, Schoenoplectiella juncoides, Cypenus rotundus, Cyperus ira, Cyperus difformis, Fimbristylis, Portulaca oleracea, Xanthium sibiricum, Ipomoea nil, Eschenbachia japonica, etc.) and major crop seeds (wheat, maize, paddy rice, soybean, cotton, oilseed rape, millet, sorghum, potato, sesame, castor plant, etc.) were placed in plastic pots filled with soil and then covered with 0.5-2 cm of soil to allow them to grow in a favorable greenhouse environment. Two weeks after sowing, the test plants were treated at the stage of 2-3 leaves. The test compounds of the present invention were individually dissolved with acetone, then added with Tween® 80, with 1.5 L/ha of methyl oleate emulsifiable concentrate as a synergist, diluted into solutions of certain concentrations using certain amount of water, and sprayed to the plants using a spray tower. After drug application, the experimental results on weeds were collected after 3 weeks of cultivation in a greenhouse. The compounds were applied at 500, 250, […], 15, and 7.5 g a.i./ha in triplicate, and the results were averaged.

[2] = tested on: Abutilon theophrasti
Source text: as §1, §2, §3

[3] = tested on: Setaria viridis
Source text: as §1, §2, §3

[4] = tested on: Amaranthus retroflexus
Source text: as §1, §2, §3

[5] = tested on: Echinochloa crus-galli
Source text: as §1, §2, §3

[6] = tested on: Veronica polita
Source text: as §1, §2, §3

COC(=O)C1(C)ON=C(c2cc(-c3ncc(OC(F)F)cc3Cl)c(F)cc2Cl)O1 (stereo not drawn) [Compound 3]
10: activity level (fresh weight growth control rate), Digitaria sanguinalis [1] | activity level (fresh weight growth control rate), Abutilon theophrasti [2] | activity level (fresh weight growth control rate), Setaria viridis [3] | activity level (fresh weight growth control rate), Amaranthus retroflexus [4] | activity level (fresh weight growth control rate), Echinochloa crus-galli [5] | activity level (fresh weight growth control rate), Veronica polita [6]

COC(=O)C1(C)ON=C(c2cc(-c3ncc(C(F)(F)F)c(F)c3F)c(F)cc2Cl)O1 (stereo not drawn) [Compound 4]
10: activity level (fresh weight growth control rate), Digitaria sanguinalis [1] | activity level (fresh weight growth control rate), Abutilon theophrasti [2] | activity level (fresh weight growth control rate), Setaria viridis [3] | activity level (fresh weight growth control rate), Amaranthus retroflexus [4] | activity level (fresh weight growth control rate), Echinochloa crus-galli [5] | activity level (fresh weight growth control rate), Veronica polita [6]

COC(=O)C1(C)ON=C(c2cc(-c3ncc(Br)cc3Cl)c(F)cc2Cl)O1 (stereo not drawn) [Compound 5]
10: activity level (fresh weight growth control rate), Digitaria sanguinalis [1] | activity level (fresh weight growth control rate), Abutilon theophrasti [2] | activity level (fresh weight growth control rate), Setaria viridis [3] | activity level (fresh weight growth control rate), Amaranthus retroflexus [4] | activity level (fresh weight growth control rate), Echinochloa crus-galli [5] | activity level (fresh weight growth control rate), Veronica polita [6]

COC(=O)C1(C)ON=C(c2cc(-c3ncc(C(F)(F)F)cc3F)c(F)cc2Cl)O1 (stereo not drawn) [Compound 6]
10: activity level (fresh weight growth control rate), Digitaria sanguinalis [1] | activity level (fresh weight growth control rate), Abutilon theophrasti [2] | activity level (fresh weight growth control rate), Setaria viridis [3] | activity level (fresh weight growth control rate), Amaranthus retroflexus [4] | activity level (fresh weight growth control rate), Echinochloa crus-galli [5] | activity level (fresh weight growth control rate), Veronica polita [6]

COC(=O)C1(C)ON=C(c2cc(-c3ncc(F)cc3F)c(F)cc2Cl)O1 (stereo not drawn) [Compound 7]
10: activity level (fresh weight growth control rate), Digitaria sanguinalis [1] | activity level (fresh weight growth control rate), Abutilon theophrasti [2] | activity level (fresh weight growth control rate), Setaria viridis [3] | activity level (fresh weight growth control rate), Amaranthus retroflexus [4] | activity level (fresh weight growth control rate), Echinochloa crus-galli [5] | activity level (fresh weight growth control rate), Veronica polita [6]

COC(=O)C1(C)ON=C(c2cc(-c3ncccc3Cl)c(F)cc2Cl)O1 (stereo not drawn) [Compound 8]
10: activity level (fresh weight growth control rate), Digitaria sanguinalis [1] | activity level (fresh weight growth control rate), Abutilon theophrasti [2] | activity level (fresh weight growth control rate), Setaria viridis [3] | activity level (fresh weight growth control rate), Amaranthus retroflexus [4] | activity level (fresh weight growth control rate), Echinochloa crus-galli [5] | activity level (fresh weight growth control rate), Veronica polita [6]

COC(=O)C1(C)ON=C(c2cc(-c3ncc(C(F)(F)F)cc3Cl)c(F)cc2Br)O1 (stereo not drawn) [Compound 9]
10: activity level (fresh weight growth control rate), Digitaria sanguinalis [1] | activity level (fresh weight growth control rate), Abutilon theophrasti [2] | activity level (fresh weight growth control rate), Setaria viridis [3] | activity level (fresh weight growth control rate), Amaranthus retroflexus [4] | activity level (fresh weight growth control rate), Echinochloa crus-galli [5] | activity level (fresh weight growth control rate), Veronica polita [6]

COC(=O)C1(C)ON=C(c2cc(-c3ncc(C(C)(F)F)cc3Cl)c(F)cc2Cl)O1 (stereo not drawn) [Compound 10]
10: activity level (fresh weight growth control rate), Digitaria sanguinalis [1] | activity level (fresh weight growth control rate), Abutilon theophrasti [2] | activity level (fresh weight growth control rate), Setaria viridis [3] | activity level (fresh weight growth control rate), Amaranthus retroflexus [4] | activity level (fresh weight growth control rate), Echinochloa crus-galli [5] | activity level (fresh weight growth control rate), Veronica polita [6]

COC(=O)C1(C)ON=C(c2cc(-c3ncc(Cl)cc3Cl)c(F)cc2Cl)O1 (stereo not drawn) [Compound 11]
10: activity level (fresh weight growth control rate), Digitaria sanguinalis [1] | activity level (fresh weight growth control rate), Abutilon theophrasti [2] | activity level (fresh weight growth control rate), Setaria viridis [3] | activity level (fresh weight growth control rate), Amaranthus retroflexus [4] | activity level (fresh weight growth control rate), Echinochloa crus-galli [5] | activity level (fresh weight growth control rate), Veronica polita [6]
